The test system of this assay is HCV subgenomic replication. The assay can be described thus: Cell based HCV replication assay (subgenomic replicon in Huh-7 cells, NS3 Cell-ELISA). To be noted: activity ranges. The source says:
Cell clones that stably maintain subgenomic HCV replicon were obtained by transfecting Huh-7 cells with an RNA replicon identical to I377neo/NS3-3′/wt described by Lohmann et al. (1999) (EMBL-genbank No. AJ242652), followed by selection with neomycin sulfate (G418). Viral replication was monitored by measuring the expression of the NS3 protein by an ELISA assay performed directly on cells grown in 96 wells microtiter plates (Cell-ELISA) using the anti-NS3 monoclonal antibody 10E5/24 (as described in published International application WO 02/59321). Cells were seeded into 96 well plates at a density of 10^4 cells per well in a final volume of 0.1 ml of DMEM/10% FCS. Two hours after plating, 50 μl of DMEM/10% FCS containing a 3× concentration of inhibitor were added, cells were incubated for 96 hours and then fixed for 10 minutes with ice-cold isopropanol. Each condition was tested in duplicate and average absorbance values were used for calculations. The cells were washed twice with PBS, blocked with 5% non-fat dry milk in PBS+0.1% Triton X100+0.02% SDS (PBSTS) and then incubated o/n at 4° C. with the 10E5/24 mab diluted in Milk/PBSTS. After washing 5 times with PBSTS, the cells were incubated for 3 hours at room temperature with Fc specific anti-mouse IgG conjugated to alkaline phosphatase (Sigma), diluted in Milk/PBSTS. After washing again as above, the reaction was developed with p-Nitrophenyl phosphate disodium substrate (Sigma) and the absorbance at 405/620 nm read at intervals. For calculations, we used data sets where samples incubated without inhibitors had absorbance values comprised between 1 and 1.5. The inhibitor concentration that reduced by 50% the expression of NS3 (IC50) was calculated by fitting the data to the Hill equation, Fraction inhibition=1−(Ai−b)/(A0−b)=[I]^n/([I]^n+[…]) where: • Ai=absorbance value of HBI10 cells supplemented with the indicated inhibitor concentration. • A0=absorbance value of HBI10 cells incubated without inhibitor. • b=absorbance value of Huh-7 cells plated at the same density in the same microtiter plates and incubated without inhibitor. • n=Hill coefficient.
For orientation: In antiviral work, replicon cells carry a viral genome segment that copies itself.

Where [1] appears, read: Table 1, 16 membered macrocycles, read-out: IC50* (nM), Inhibition of HCV subgenomic replication.
The mark [2] stands for this setting: Table 4, various macrocycles, read-out: IC50* (nM), Inhibition of HCV subgenomic replication.
The mark [3] stands for this setting: Table 2, various macrocycles, read-out: IC50* (nM), Inhibition of HCV subgenomic replication.
Setting [4] is: Hepatitis C virus, Huh-7, Table 3, various macrocycles, read-out: IC50* (nM), Inhibition of HCV subgenomic replication.
Where [5] appears, read: Table A, Huh-7 replicon cells, 96 hours, read-out: IC50 (nM), Inhibition of HCV subgenomic replication.
Where [6] appears, read: Table 5, various macrocycles, read-out: IC50* (nM), Inhibition of HCV subgenomic replication.

Each structure is given as a SMILES string. Read-outs that look alike come from different tables or passages of the source. Bounds are passed on as bounds.

The term IC50 denotes the concentration needed to halve the response being measured.

In the case of `CC(C)CN1CCN(C)C2COc3ccccc3-c3c(C4CCCCC4)c4ccc(cc4n3C2)C(=O)NS(=O)(=O)N(C)CC1` [Example 104, (7R)-14-cyclohexyl-21-isobutyl-18,24-dimethyl-7,8-dihydro-6H-7,11-(epiminoethanoiminoethanoiminothioiminomethano)-indolo[1,2-e][1,5]benzoxazocin-15-one 17,17-dioxide], the IC50 under setting [1] was below 25 nM. In the case of `CN1CCN(CCOCc2ccccc2)CCN(C)S(=O)(=O)NC(=O)c2ccc3c(C4CCCCC4)c4n(c3c2)CC1COc1ccccc1-4` [Example 102, (7R)-21-[2-(benzyloxy)ethyl]-14-cyclohexyl-18,24-dimethyl-7,8-dihydro-6H-7,11-(epiminoethanoiminoethanoiminothioiminomethano)-indolo[1,2-e][1,5]benzoxazocin-15-one 17,17-dioxide], the IC50 under setting [1] was below 25 nM. In the case of `CN1CCN(CC(N)=O)C2COc3ccccc3-c3c(C4CCCCC4)c4ccc(cc4n3C2)C(=O)NS(=O)(=O)N(C)CC1` [Example 408, 2-[(7R)-14-cyclohexyl-18,21-dimethyl-17,17-dioxido-15-oxo-7,8-dihydro-6H-7,11-(epiminoethanoiminoethanoiminothioiminomethano)-indolo[1,2-e][1,5]benzoxazocin-24-yl]acetamide], the IC50 under setting [2] lay within 25 to 150 nM. Take `CC(C)N1CCN(C)C2COc3ccc(F)cc3-c3c(C4CCCCC4)c4ccc(cc4n3C2)C(=O)NS(=O)(=O)N(C)CC1` [Example 209, (7R)-14-cyclohexyl-2-fluoro-21-isopropyl-18,24-dimethyl-7,8-dihydro-6H-7,11-(epiminoethanoiminoethanoiminothioiminomethano)-indolo[1,2-e][1,5]benzoxazocin-15-one 17,17-dioxide]: the half-inhibitory concentration (IC50) under setting [3] is below 25 nM. `CCN1CCN(C)C2COc3c(cccc3C(F)(F)F)-c3c(C4CCCCC4)c4ccc(cc4n3C2)C(=O)NS(=O)(=O)N(C)CC1` [Example 406, (7R)-14-cyclohexyl-21-ethyl-18,24-dimethyl-4-(trifluoromethyl)-7,8-dihydro-6H-7,11-(epiminoethanoiminoethanoiminothioiminomethano)-indolo[1,2-e][1,5]benzoxazocin-15-one 17,17-dioxide]: under setting [2], the half-maximal inhibitory concentration (IC50) lay within 150 to 500 nM. Turning to `CN1CCN(Cc2cnn(C)c2)C2COc3ccccc3-c3c(C4CCCCC4)c4ccc(cc4n3C2)C(=O)NS(=O)(=O)N(C)CC1` [Example 409, (7R)-14-cyclohexyl-18,21-dimethyl-24-[(1-methyl-1H-pyrazol-4-yl)methyl]-7,8-dihydro-6H-7,11-(epiminoethanoiminoethanoiminothioiminomethano)-indolo[1,2-e][1,5]benzoxazocin-15-one 17,17-dioxide], the IC50 under setting [2] is below 25 nM. As to `CN1C2CCN(CCN(C)S(=O)(=O)NC(=O)c3ccc4c(C5CCCCC5)c5n(c4c3)C[C@@H]1COc1ccccc1-5)C2` [Example 301, (18R)-29-cyclohexyl-10,17-dimethyl-20-oxa-9-thia-1,8,10,13,17-pentaazahexacyclo[16.9.1.1^2,6.1^3,27.1^13,16.0^21,26]hentriaconta-2(31),3,5,21,23,25,27(29)-heptaen-7-one 9,9-dioxide], under setting [4], the IC50 was below 25 nM.

Consider `CN1CCCCN(C)S(=O)(=O)NC(=O)c2ccc3c(C4CCCCC4F)c4n(c3c2)CC(COc2ccccc2-4)C1` (single isomer, unassigned) [Compound A16, (7R,S)-14-[(1R,2S) or (1S,2R)-2-fluorocyclohexyl]-18,23-dimethyl-7,8-dihydro-6H-11,7-(methanoiminothioiminobutanoiminomethano)indolo[1,2-e][1,5]benzoxazocin-15-one 17,17-dioxide], for which, under setting [5], the 50% inhibitory concentration (IC50) is 25 to 150 nM. For the molecule `CN1CCNCCN(C)S(=O)(=O)NC(=O)c2ccc3c(C4CCCCC4)c4n(c3c2)CC1COc1ccccc1-4` [Example 401, (7S)-14-cyclohexyl-18,24-dimethyl-7,8-dihydro-6H-7,11-(epiminoethanoiminoethanoiminothioiminomethano)-indolo[1,2-e][1,5]benzoxazocin-15-one 17,17-dioxide], the IC50 under setting [2] fell in the range of 25 to 150 nM. With `CCN1CCN(C)C2COc3ccccc3-c3c(C4CCCCC4)c4ccc(cc4n3C2)C(=O)NS(=O)(=O)N(CCO)CC1` [Example 106, (7R)-14-cyclohexyl-21-ethyl-18-(2-hydroxyethyl)-24-methyl-7,8-dihydro-6H-7,11-(epiminoethanoiminoethanoiminothioiminomethano)-indolo[1,2-e][1,5]benzoxazocin-15-one 17,17-dioxide], the IC50 under setting [1] is below 25 nM. As to `COc1ccc2c(c1)OCC1CCCN(C)CCN(C)S(=O)(=O)NC(=O)c3ccc4c(C5CCCCC5)c-2n(c4c3)C1` (single isomer, unassigned; (+)) [Compound A36, (+)-14-cyclohexyl-3-methoxy-18,21-dimethyl-7,8-dihydro-6H-7,11-(propanoiminoethanoiminothioiminomethano)indolo[1,2-e][1,5]benzoxazocin-15-one 17,17-dioxide], the IC50 under setting [5] was in the range of 25 to 150 nM. For the molecule `CC(C)N1CCN(C)[C@H]2COc3cc(F)ccc3-c3c(C4CCCCC4)c4ccc(cc4n3C2)C(=O)NS(=O)(=O)N(C)CC1` [Example 207, (7R)-14-cyclohexyl-3-fluoro-21-isopropyl-18,24-dimethyl-7,8-dihydro-6H-7,11-(epiminoethanoiminoethanoiminothioiminomethano)-indolo[1,2-e][1,5]benzoxazocin-15-one 17,17-dioxide], the IC50 under setting [3] is below 25 nM. As to `CN1CCCN(CCO)CCC2COc3ccccc3-c3c(C4CCCCC4)c4ccc(cc4n3C2)C(=O)NS1(=O)=O` (single isomer, unassigned) [Example 507, (7R) or (7S)-14-cyclohexyl-22-(2-hydroxyethyl)-18-methyl-7,8-dihydro-6H-7,11-(ethanoiminopropanoiminothioiminomethano)indolo[1,2-e][1,5]benzoxazocin-15-one 17,17-dioxide], under setting [6], the IC50 is below 25 nM. Take `COc1ccc2c(c1)OCC1CCN(C)CC(F)CN(C)S(=O)(=O)NC(=O)c3ccc4c(C5CCCCC5)c-2n(c4c3)C1` [Example 525, (7R)-14-cyclohexyl-20-fluoro-3-methoxy-18,22-dimethyl-7,8-dihydro-6H-7,11-(ethanoiminopropanoiminothioiminomethano)indolo[1,2-e][1,5]benzoxazocin-15-one 17,17-dioxide]: the half-maximal inhibitory concentration (IC50) under setting [6] is below 25 nM.

On to `COc1ccc2c(c1)OCC1CCN(C)CCCN(C)S(=O)(=O)NC(=O)c3ccc4c(C5CCCCC5F)c-2n(c4c3)C1` (single isomer, unassigned) [Compound A38, 14-[(1R,2S) or (1S,2R)-2-fluorocyclohexyl]-3-methoxy-18,22-dimethyl-7,8-dihydro-6H-7,11-(ethanoiminopropanoiminothioiminomethano)indolo[1,2-e][1,5]benzoxazocin-15-one 17,17-dioxide], for which, under setting [5], the IC50 was below 25 nM.

As to `COc1ccc2c(c1)OC[C@@H]1CCN(C)C3CCN(CC3)S(=O)(=O)NC(=O)c3ccc4c(C5CCCCC5)c-2n(c4c3)C1` [Example 523, (20R)-30-cyclohexyl-15-methoxy-23-methyl-18-oxa-2-thia-1,3,10,23-tetraazahexacyclo[22.2.2.1^5,9.1^8,11.1^10,20.0^12,17]hentriaconta-5(31),6,8,11(30),12,14,16-heptaen-4-one 2,2-dioxide], the IC50 (Hepatitis C virus, Huh-7, Table 5, various macrocycles, read-out: IC50* (nM), Inhibition of HCV subgenomic replication) is below 25 nM. `CCN1CCN(C)[C@H]2COc3cc(C)ccc3-c3c(C4CCCCC4)c4ccc(cc4n3C2)C(=O)NS(=O)(=O)N(C)CC1` [Example 215, (7R)-14-cyclohexyl-21-ethyl-3,18,24-trimethyl-7,8-dihydro-6H-7,11-(epiminoethanoiminoethanoiminothioiminomethano)-indolo[1,2-e][1,5]benzoxazocin-15-one 17,17-dioxide]: the half-inhibitory concentration (IC50) under setting [3] is below 25 nM.

As for `CN1CCN2CCC(CC2)N(C)S(=O)(=O)NC(=O)c2ccc3c(C4CCCCC4)c4n(c3c2)C[C@@H]1COc1ccccc1-4` [Example 303, (5R)-31-cyclohexyl-4,24-dimethyl-7-oxa-23-thia-1,4,15,22,24-pentaazahexacyclo[23.2.2.1^5,15.1^14,17.1^16,20.0^8,13]dotriaconta-8,10,12,14(31),16(30),17,19-heptaen-21-one 23,23-dioxide], under setting [4], the half-maximal inhibitory concentration (IC50) was below 25 nM.

Values taken from patent US7989438B2, “Therapeutic compounds” (Istituto di Ricerche di Biologia Molecolare P. Angeletti SpA, priority 2007, dated 2011).
